This passage reports inhibition results from patent EP0200345A2, “Anti-allergic or anti-inflammatory substituted (hetero)-aralkylamino-ortho-phenols” (BEECHAM GROUP PLC, priority 1985, dated 1986).

As a reminder, the inhibition is the drop in the measured response relative to a control, in per cent. A low value points to little suppression.

Counter-ions that a name gives are not always drawn.

One test has as its target T1, RBL-1 5-lipoxygenase (Rattus norvegicus, UniProt P12527).
T1 construct: 5-Lipoxygenase enzyme was prepared as a 10,000g supernatant from RBL-1 cells; endogenous in cells; host or cells: RBL-1 cells (10,000g supernatant of the homogenate)
T1 sequence (P12527 1-673): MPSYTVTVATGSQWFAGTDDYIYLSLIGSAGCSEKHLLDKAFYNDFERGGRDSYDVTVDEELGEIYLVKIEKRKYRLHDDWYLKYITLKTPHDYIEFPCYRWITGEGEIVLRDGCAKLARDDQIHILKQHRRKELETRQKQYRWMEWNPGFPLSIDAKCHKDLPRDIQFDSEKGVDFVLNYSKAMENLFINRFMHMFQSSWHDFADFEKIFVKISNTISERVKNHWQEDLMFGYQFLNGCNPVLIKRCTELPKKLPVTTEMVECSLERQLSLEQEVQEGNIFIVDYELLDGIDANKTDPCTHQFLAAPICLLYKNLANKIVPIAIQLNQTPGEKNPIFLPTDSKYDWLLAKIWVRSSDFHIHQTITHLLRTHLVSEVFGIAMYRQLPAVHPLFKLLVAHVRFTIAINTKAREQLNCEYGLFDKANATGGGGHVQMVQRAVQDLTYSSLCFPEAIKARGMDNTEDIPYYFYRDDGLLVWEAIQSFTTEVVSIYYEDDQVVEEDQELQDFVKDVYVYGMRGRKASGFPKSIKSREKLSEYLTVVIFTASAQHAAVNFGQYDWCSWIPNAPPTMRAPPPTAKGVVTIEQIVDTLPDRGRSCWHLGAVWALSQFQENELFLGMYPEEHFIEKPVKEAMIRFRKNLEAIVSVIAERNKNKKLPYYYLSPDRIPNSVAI
Description: RBL-1 5-lipoxygenase screen. Particulars: compound concentration 0.05 µM; 10,000g supernatant from RBL-1 cells; formation of 5-HETE and 5,12-diHETE. It is filed as biochemical. On the procedure:
1) RBL-1 5-LIPOXYGENASE SCREEN
5-Lipoxygenase enzyme was prepared as a 10,000g supernatant from RBL-1 cells by the method of Jakschik (Jakschik, B.A., F.F. Sun, L.M. Lee, and M.M. Steinhoff, 1980, Biochem. Biophys. Res. Comm. 95, 103). The 10,000g supernatant was diluted with homogenization buffer to the equivaleni of 1.5 -2.5 x 10^7 cells. ml.-' and made 2mM with respect to CaCl2. Aliquots of 0.5ml were then dispensed into tubes, and incubated at 29°C with 5ul ethanol or compound in ethanol at the desired concentration for 2min. Then [1-"C] arachidonic acid was added in buffer to give a final concentration of 6.3uM and 0.2uCi per incubation, and the reaction continued at 29°C for 2 min. The reaction was terminated by adding 1ml of acetone and cooling on ice, 0.5ml of ice-cold saline and 100ul of 2N formic acid were added, and the mixture was extracted with 2 ^x 2ml of chloroform. The extract was stored under N, at -20°C until analysis by chromatography. Activity was measured as the percentage of total radioactivity found in 5-HETE and 5,12-diHETE, and inhibition calculated as the decrease information of the sum of these two species in compound-treated incubates relative to control incubations.
Consider `Cc1ccc(O)c(NCc2ccc(O)cc2)c1` [Example 27, 2-[(4-hydroxyphenyl)methyl]amino-4-methylphenol], for which the inhibition at 0.05 µM is 12%.

For `Cc1ccc(O)c(NCc2ccc(Br)cc2)c1` [Example 14, 2-[(4-bromophenyl)methyl]amino-4-methyl phenol], the inhibition at 0.05 µM turned out to be 64.2%.

Compound `COc1ccc(CNc2cc(C)ccc2O)cc1` [Example 7, 2-[(4-methoxyphenyl)methyl]amino-4-methylphenol] came in with an inhibition at 0.05 µM of 61.7%.

As to `CCc1ccc(O)c(NCc2ccccc2)c1` [Example 24, 2-phenylmethylamino-4-ethylphenol], the inhibition at 0.05 µM amounted to 20%.

Compound `Cc1ccc(O)c(NCc2ccc(Cl)cc2)c1` [Example 8, 2-[(4-chlorophenyl)methyl]amino-4-methylphenol] yielded an inhibition at 0.05 µM of 91.4%.

On to `Cc1ccc(O)c(NCc2ccc(C#N)cc2)c1` [Example 5, 2-[(4-Cyanophenyl)methyl]amino-4-methylphenol], for which 0.05 µM produced 42.8% inhibition.

Compound `CC(C)(C)c1ccc(O)c(NCc2ccccc2)c1` [Example 21, 2-phenylmethylamino-4-tert-butylphenol] registered an inhibition at 0.05 µM of 35%.

Consider `Cc1ccc(O)c(NCCc2ccccc2)c1` [Example 28, 2-phenylethylamino-4-methylphenol], for which the inhibition at 0.05 µM amounted to 86%.

For `Oc1ccc(Cl)cc1NCc1ccccc1` [Example 22, 2-phenylmethylamino-4-chlorophenol], testing at 0.05 µM gave an inhibition of 81%.

On to `Cc1ccc(O)c(NCc2ccc(C(C)C)cc2)c1` [Example 26], for which the inhibition at 0.05 µM came out at 80%.

On to `CC(C)c1ccc(O)c(NCc2ccccc2)c1` [Example 20, 2-phenylmethylamino-4-iso-propylphenol], for which at 0.05 µM the inhibition was 77%.

As to `Cc1ccc(O)c(NCc2cccc(F)c2)c1` [Example 16, 2-[(3-fluorophenyl)methyl]amino-4-methyl phenol], at 0.05 µM the inhibition was 76%.

`Cc1ccc(O)c(NCc2ccc([N+](=O)[O-])cc2)c1` [Example 25] yielded an inhibition at 0.05 µM of 80%.

Turning to `Cc1ccc(O)c(NCc2ccc(F)cc2)c1` [Example 11, 2-[(4-fluorophenyl)methyl]amino-4-methyl phenol], at 0.05 µM the inhibition was 93.2%.

Take `Cc1ccc(O)c(NC(C)c2ccccc2)c1` (stereo not drawn) [Example 17, 2 -(α -Methylbenzyl)amino -4 -methylphenol]: the inhibition at 0.05 µM amounted to 34%.

The compound `Cc1ccc(CNc2cc(C)ccc2O)cc1` [Example 6, 2-[(4-Methylphenyl)methyl]amino-4-methylphenol] had an inhibition at 0.05 µM of 93.4%.

For the compound `Cc1ccc(O)c(NCc2ccc(Cl)c(Cl)c2)c1` [Example 12, 2-[(3,4 dichlorophenyl)methyl]amino-4-methyl phenol], 0.05 µM produced 73.7% inhibition.

`Cc1ccc(O)c(NCc2cccc(Cl)c2)c1` [Example 15] yielded an inhibition at 0.05 µM of 85%.

On to `Cc1ccc(O)c(NCc2cccc(C(F)(F)F)c2)c1` [Example 10, 2-[(3-trifluoromethylphenyl)methyl]amino-4-methylphenol], for which at 0.05 µM the inhibition was 89.5%.

In the case of `Cc1ccc(O)c(NCc2ccco2)c1` [Example 9, 2-[(2-furyl)methyl]amino-4-methylphenol], the inhibition at 0.05 µM is 31.4%.

With `Cc1ccc(O)c(NCc2cccs2)c1` [Example 13, 2-[(thien-2-yl)methyl]amino-4-methyl phenol], 0.05 µM produced 49.7% inhibition.

Staying with this test, now noted: compound concentration 1 µM; 10,000g supernatant from RBL-1 cells; formation of 5-HETE and 5,12-diHETE.
On to `O=C(c1ccccc1)c1cc(NCc2ccccc2)c(O)cc1O` [Example 29, 4-Benzoyl-6-(Phenylmethylamino)resorcinol hydrochloride], for which 1 µM produced 94% inhibition.

The compound `Cc1ccc(O)c(N(Cc2ccccc2)Cc2ccccc2)c1` [Example 30, 2-Dibenzylamino-4-methylphenol] came in with an inhibition at 1 µM of 91%.

Staying with this test, now noted: compound concentration 20 µM; 10,000g supernatant from RBL-1 cells; formation of 5-HETE and 5,12-diHETE.
In turn, `Oc1ccc(Br)cc1NCc1ccccc1` [Example 23, 2-phenylmethylamino-4-bromophenol] displayed an inhibition at 20 µM of 98%.

Regarding `Cc1ccc(O)c(NCc2ccccc2)c1` [Example 3, 2-Phenylmethyfamino-4-methylphenol], the inhibition at 20 µM amounted to 95.4%.
